# Source: paper PMC12434071, “Platinum-group metal half-sandwich complexes of 1-(α-D-glucopyranosyl)-4-hetaryl-1,2,3-triazoles: synthesis, solution equilibrium studies, and investigation of their anticancer and antimicrobial activities” (Frontiers in Chemistry, 2025)
# Legend:
# A2780 cells [1] = assay: MTT reduction assay on A2780 cells; assay type: cell-based; settings: maximal inhibition; 4 h treatment; maximum concentration 100 µM
# Protocol: For MTT assays, 4 × 10^3 A2780 cells were plated into 96-well plates, and for SRB assays, 1.5 × 10^3 A2780 cells were plated into 96-well plates. Cells were treated with the compounds in the concentrations indicated for either 4 h for an MTT assay or for 48 h for an SRB assay. Data are represented as average ± SD, from four biological replicates, with the exception of the MTT dataset of Ir-2b and the SRB datasets of 2b, Ru/Ir-2b, and Ir-3a, which were derived from three biological replicates. Individual assays were performed in duplicate. Values were normalized for vehicle-treated cells, and the absorbance for vehicle-treated cells equals 1. Data are represented as fold change compared to vehicle-treated controls. Normality was assessed using the D'Agostino-Pearson test. Statistical significance was assessed using a two-way ANOVA test followed by Tukey's post hoc test. For better visibility, normality, transformations, statistical tests, and p values are presented in an MS Excel sheet at https://figshare.com/s/3a0aa60b66f3f746f41e. Color code: black-free ligand (2a,b or 3a), khaki-ruthenium complex (Ru-2a,b or Ru-3a), green-iridium complex (Ir-2a,b or Ir-3a).  FIGURE 5 The ruthenium, osmium, and iridium complexes of ligands 4a, 4b, and 5a decrease MTT reduction. For MTT assays, 4 × 10^3 A2780 cells, 3 × 10^3 ID8 cells, or 6 × 10^3 human primary fibroblasts were plated into 96-well plates. Cells were treated with the compounds in the concentrations indicated for 4 h. Data are represented as average ± SD, from four biological replicates on A2780, and from three biological replicates on ID8 and human primary fibroblasts. For the datasets of 5a and Os-5a on human primary fibroblasts, the data represent four biological replicates. Individual assays were performed in duplicate. Values were normalized for vehicle-treated cells, and the absorbance for vehicle-treated cells equals 1. Normality was assessed using the D'Agostino-Pearson test. Statistical significance was assessed using a two-way ANOVA test followed by Tukey's post hoc test. For better visibility, normality, transformations, statistical tests, and p values are presented in an MS Excel sheet at https://figshare.com/s/3a0aa60b66f3f746f41e. Color code: black-free ligand (4a,b or 5a), khaki-ruthenium complex (Ru-4a,b), green-iridium complex (Ir-4a,b), blue-osmium complex (Os-4a,b or Os-5a), and red-rhodium complex (Rh-4a,b). An MTT reduction assay measures the activity of mitochondrial complex I and can be used to detect toxicity ([[…] et al., 2016]). The assay was performed in a manner similar to that described by [[…] et al. (2023b)]. Briefly, cells were plated into 96-well plates the day before the assay. Cells were treated with the compounds for 4 h; then, MTT was added to a 0.5 mg/mL final concentration, and cells were incubated at 37°C in a cell incubator for 40-60 min, as a function of the cell line being assessed. The culture medium was removed, the reduced MTT dye was dissolved in dimethylsulfoxide, and plates were measured in a plate photometer (Thermo Scientific Multiscan GO spectrophotometer, Waltham, MA, United States) at 540 nm. Certain wells were designated to contain vehicle-treated cells on each plate. In calculations, the readings for these wells were considered to 1, and all readings were expressed relative to these values. Statistical analysis was performed using version 8.0.1 of GraphPad Prism. Values were tested for normal distribution using the D'Agostino-Pearson or Shapiro-Wilk normality tests. When necessary, values were log-normalized or normalized using the Box-Cox or two-step normalization method ([Box and Cox, 1964]), as indicated in the MS Excel file listing the values at https://figshare.com/s/3a0aa60b66f3f746f41e. The following statistical test, post hoc test, and the level of significance are indicated in the MS Excel file listing the values at https://figshare.com/s/3a0aa60b66f3f746f41e. […]
# A2780 cells [2] = assay: SRB assay on A2780 cells; assay type: cell-based; settings: maximal inhibition; 48 h treatment; maximum concentration 100 µM
# Protocol: For MTT assays, 4 × 10^3 A2780 cells were plated into 96-well plates, and for SRB assays, 1.5 × 10^3 A2780 cells were plated into 96-well plates. Cells were treated with the compounds in the concentrations indicated for either 4 h for an MTT assay or for 48 h for an SRB assay. Data are represented as average ± SD, from four biological replicates, with the exception of the MTT dataset of Ir-2b and the SRB datasets of 2b, Ru/Ir-2b, and Ir-3a, which were derived from three biological replicates. Individual assays were performed in duplicate. Values were normalized for vehicle-treated cells, and the absorbance for vehicle-treated cells equals 1. Data are represented as fold change compared to vehicle-treated controls. Normality was assessed using the D’Agostino–Pearson test. Statistical significance was assessed using a two-way ANOVA test followed by Tukey’s post hoc test. For better visibility, normality, transformations, statistical tests, and p values are presented in an MS Excel sheet at https://figshare.com/s/3a0aa60b66f3f746f41e. Color code: black—free ligand (2a,b or 3a), khaki—ruthenium complex (Ru-2a,b or Ru-3a), green—iridium complex (Ir-2a,b or Ir-3a).  FIGURE 7 The ruthenium, osmium, and iridium complexes of ligands 4a, 4b, and 5a are cytostatic on ovarian cancer models with a good therapeutic index. For SRB assays, 1.5 × 10^3 A2780 cells, 1.5 × 10^3 ID8 cells, or 4 × 10^3 primary fibroblasts were plated into 96-well plates. Cells were treated with the compounds in the concentrations indicated for 48 h. Data are represented as average ± SD, from four biological replicates on A2780 and human primary fibroblasts, except in the case of Os complexes, where experiments were performed in three biological replicates. ID8 cells were assessed in three biological replicates. Individual assays were performed in duplicate. Values were normalized for vehicle-treated cells, and the absorbance for vehicle-treated cells equals 1. Normality was assessed using the D’Agostino–Pearson test. Statistical significance was assessed using a two-way ANOVA test followed by Tukey’s post hoc test. For better visibility, normality, transformations, statistical tests, and p values are presented in an MS Excel sheet at https://figshare.com/s/3a0aa60b66f3f746f41e. Color code: black—free ligand (4a,b or 5a), khaki—ruthenium complex (Ru-4a,b), blue—osmium complex (Os-4a,b or Os-5a), green—iridium complex (Ir-4a,b), and red—rhodium complex (Rh-4a,b). An SRB assay measures protein content of cells in correlation with the cell number in an assay well and can therefore be used to assess cell proliferation or long-term cytostasis ([Skehan et al., 1990]). Cells were seeded into 96-well plates the day before the treatment for the assay. Cells were treated with the various compounds for 48 h. Then, the medium was removed, and cells were fixed with 10% trichloroacetic acid. Fixed cells were washed in distilled water three times, followed by staining with SRB (0.4 m/V% dissolved in 1% acetic acid) for 10 min. Stained cells were washed in 1% acetic acid five times; the acetic acid was removed, and the cells were left to dry. Protein-bound SRB was released by adding 100 µL of 10 mM Tris base. Plates were measured in a plate photometer (Thermo Scientific Multiscan GO spectrophotometer, Waltham, MA, United States) at 540 nm. Certain wells were designated to contain vehicle-treated cells on each plate. […] Statistical analysis was performed using version 8.0.1 of GraphPad Prism. Values were tested for normal distribution using the D’Agostino–Pearson or Shapiro–Wilk normality tests. When necessary, values were log-normalized or normalized using the Box–Cox or two-step normalization method ([Box and Cox, 1964]), as indicated in the MS Excel file listing the values at https://figshare.com/s/3a0aa60b66f3f746f41e. […]
# [3] = pH-potentiometric titration, protonation constants (pKa) of the ligands; assay type: physicochemical; settings: 0.20 M KCl, 25.0°C; N-heterocyclic ring of the ligand
# Protocol: In order to obtain information on the acidbase character of the ligands and on the stoichiometry and stability of the complexes present in aqueous medium, potentiometric titrations were carried out in selected systems. Based on the results, both 3a and 3b, having good enough solubility in water, are capable of releasing one hydrogen ion from the fully protonated forms in the measurable pH range (see Figure 3, “pK”). The calculated pK a values appear in Table 4; these values belong to the N-heterocyclic ring of the ligands. […]. For comparison, the previously prepared β-anomeric pair of 3a, compound 3a-β ([Kacsir et al., 2021]) in Table 4, was also studied.
# For solution studies, doubly deionized and ultra-filtered water was obtained from a Milli-Q RG (Millipore) water purification system. pH-potentiometric measurements were carried out at a constant ionic strength of 0.20 M KCl and at 25.0°C. Carbonate-free KOH solutions of known concentrations (ca. 0.2 M) were used as titrant. […]. A Mettler Toledo DL50 titrator equipped with a DG114-SC combined glass electrode was used for the pH-potentiometric measurements. […] The titrations were performed in the pH range of 2.0–11.0 in equilibrium-controlled mode, during which the pH equilibrium was assumed to be reached if a change in the measured potential was less than 0.1 mV within 90 s. […]
# [4] = pH-potentiometric titration, stability constants (logβ) of ML complexes; assay type: physicochemical; settings: [(η^5-Cp*)Rh]^2+; 0.20 M KCl, 25.0°C
# Description: […]. […] Comparing the two metal ion containing systems, the complexation with [(η^6-p-cym)Ru]^2+, starts at a more acidic pH, but hydrolytic processes occur already in the physiological pH range due to the higher affinity of the metal ion to hydrolysis. For the [(η^5-Cp*)Rh]^2+, these processes are shifted towards higher pH; […].
# For solution studies, doubly deionized and ultra-filtered water was obtained from a Milli-Q RG (Millipore) water purification system. pH-potentiometric measurements were carried out at a constant ionic strength of 0.20 M KCl and at 25.0°C. Carbonate-free KOH solutions of known concentrations (ca. 0.2 M) were used as titrant. […]. A Mettler Toledo DL50 titrator equipped with a DG114-SC combined glass electrode was used for the pH-potentiometric measurements. […] The titrations were performed in the pH range of 2.0–11.0 in equilibrium-controlled mode, during which the pH equilibrium was assumed to be reached if a change in the measured potential was less than 0.1 mV within 90 s. […] The protonation constants of the ligands and the overall stability constants of the complexes, βp,q,r = [MpHqLr]/[M]^p[H]^q[L]^r (where “M” stands for [(η^5-Cp*)Rh(H2O)3]^2+ and “L” represents the completely deprotonated form of the ligand), were calculated with the aid of the SUPERQUAD ([Gans et al., 1985]) and PSEQUAD ([Zékány and Nagypál, 1985]) computer programs, respectively. […]
# [5] = tested on: cisplatin-resistant A2780 cells; settings: ref Kacsir et al., 2023a; cited from earlier work
Structure (SMILES),A2780 MTT max % (A2780 cells [1]),A2780 SRB max % (A2780 cells [2]),pK a [3],logβ [ML] [4],IC50 [5]
"CC(=O)OC[C@H]1O[C@H](n2cc(-c3ccccn3)nn2)[C@H](OC(C)=O)[C@@H](OC(C)=O)[C@@H]1OC(C)=O [Complex 2a, 1-(2’,3’,4’,6’-Tetra-O-acetyl-α-D-glucopyranosyl)-4-(pyridin-2-yl)-1,2,3-triazole]",0%,0%,–,–,–
"CC(=O)OC[C@H]1O[C@H](n2cc(-c3ccc4ccccc4n3)nn2)[C@H](OC(C)=O)[C@@H](OC(C)=O)[C@@H]1OC(C)=O [Complex 2b, 1-(2’,3’,4’,6’-Tetra-O-acetyl-α-D-glucopyranosyl)-4-(quinolin-2-yl)-1,2,3-triazole]",0%,22.33%,–,–,–
"OC[C@H]1O[C@H](n2cc(-c3ccc4ccccc4n3)nn2)[C@H](O)[C@@H](O)[C@@H]1O [Complex 3b, 1-(α-D-Glucopyranosyl)-4-(quinolin-2-yl)-1,2,3-triazole]",–,–,3.56 (1),5.55 (3),–
N.N.[Cl][Pt][Cl] [cisplatin],–,–,–,–,16.5 µM
